We go through 32 compounds from ChEMBL document CHEMBL1615344, “Cerep in vitro phospholipidosis assay data”.

The nature of data set [1]: (§1) Cerep Phospholipidosis assay (HepG2 cells). It is filed as ADME, cell-based. As to conditions: human, HepG2 cells; read-out: Maximum test concentration that did not exhibit cytotoxicity.
Data set [2] has as its system Phospholipidosis. The description is as §1. Particulars: human, hepg2. The data set is classed as ADME, cell-based.

With `CC(=O)Nc1ccc(O)cc1` [ACETAMINOPHEN], the MNTC in data set [1] is 100 µM. For the same compound, the “Phospholipidosis as % of positive control” value (shortened to “Phospholipidosis as %”) in data set [2] came out at 0.3%. The matching figures for `Nc1c(Br)cc(Br)cc1CN[C@H]1CC[C@H](O)CC1` [AMBROXOL]: 50 µM and 29.7%. For the compound `NCC[C@H](O)C(=O)N[C@@H]1C[C@H](N)[C@@H](O[C@H]2O[C@H](CN)[C@@H](O)[C@H](O)[C@H]2O)[C@H](O)[C@H]1O[C@H]1O[C@H](CO)[C@@H](O)[C@H](N)[C@H]1O` [AMIKACIN], the MNTC in data set [1] amounted to 25 µM. Also, the “Phospholipidosis as %” value in data set [2] stood at 4.9%. Regarding `CCCCc1oc2ccccc2c1C(=O)c1cc(I)c(OCCN(CC)CC)c(I)c1` [AMIODARONE], the MNTC in data set [1] amounted to 6.25 µM. Besides, the “Phospholipidosis as %” value in data set [2] is listed as 38.4%.

On to `CN(C)CCC=C1c2ccccc2CCc2ccccc21` [AMITRIPTYLINE], for which, in data set [1], the MNTC came out at 20 µM. The “Phospholipidosis as %” value in data set [2] is listed as 49.8%. `CC[C@H]1OC(=O)[C@H](C)[C@@H](O[C@H]2C[C@@](C)(OC)[C@@H](O)[C@H](C)O2)[C@H](C)[C@@H](O[C@@H]2O[C@H](C)C[C@H](N(C)C)[C@H]2O)[C@](C)(O)C[C@@H](C)CN(C)[C@H](C)[C@@H](O)[C@]1(C)O` [AZITHROMYCIN]: the MNTC in data set [1] was 25 µM. In addition, in data set [2], the “Phospholipidosis as %” value is reported as 26.7%. The like results for `CN(Cc1cc(Br)cc(Br)c1N)C1CCCCC1` [BROMHEXINE] were, in that order, 50 µM and 30.1%.

On to `CCN(CC)CCCC(C)Nc1ccnc2cc(Cl)ccc12` (stereo not drawn) [CHLOROQUINE], for which, in data set [1], the MNTC was determined as 10 µM. Moreover, the “Phospholipidosis as %” value in data set [2] was determined as 22.8%. As to `CN(C)CCCN1c2ccccc2Sc2ccc(Cl)cc21` [CHLORPROMAZINE], the MNTC in data set [1] amounted to 5 µM. In data set [2], the “Phospholipidosis as %” value worked out at 54.7%. As to `CN(C)CCCC1(c2ccc(F)cc2)OCc2cc(C#N)ccc21` (stereo not drawn) [CITALOPRAM], the MNTC in data set [1] is 100 µM. Also, in data set [2], the “Phospholipidosis as %” value was determined as 19.6%. Turning to `CN1CCN(C2=Nc3cc(Cl)ccc3Nc3ccccc32)CC1` [CLOZAPINE], in data set [1], the MNTC is 12.5 µM. The “Phospholipidosis as %” value in data set [2] amounted to 18.9%. Consider `CN(C)CCC=C1c2ccccc2COc2ccccc21` [DOXEPIN], for which, in data set [1], the MNTC is 25 µM. For the same compound, in data set [2], the “Phospholipidosis as %” value is 36.4%.

For the compound `CC[C@H]1OC(=O)[C@H](C)[C@@H](O[C@H]2C[C@@](C)(OC)[C@@H](O)[C@H](C)O2)[C@H](C)[C@@H](O[C@@H]2O[C@H](C)C[C@H](N(C)C)[C@H]2O)[C@](C)(O)C[C@@H](C)C(=O)[C@H](C)[C@@H](O)[C@]1(C)O` [ERYTHROMYCIN], the MNTC in data set [1] is 50 µM. In addition, the “Phospholipidosis as %” value in data set [2] came to 61.9%. As to `CNCCC(Oc1ccc(C(F)(F)F)cc1)c1ccccc1` (stereo not drawn) [FLUOXETINE], the MNTC in data set [1] amounted to 5 µM. On to `O=C(CCCN1CCC(O)(c2ccc(Cl)cc2)CC1)c1ccc(F)cc1` [HALOPERIDOL], for which, in data set [1], the MNTC was found to be 12.5 µM. In addition, the “Phospholipidosis as %” value in data set [2] came to 42.1%. For the compound `OCCOCCN1CCN(C(c2ccccc2)c2ccc(Cl)cc2)CC1` (stereo not drawn) [HYDROXYZINE], the MNTC in data set [1] came out at 25 µM. The “Phospholipidosis as %” value in data set [2] amounted to 35.8%. For `CN(C)CCCN1c2ccccc2CCc2ccccc21` [IMIPRAMINE], the MNTC in data set [1] was 6.25 µM. For the same compound, the “Phospholipidosis as %” value in data set [2] was determined as 2.1%. Take `CC(=O)N1CCN(c2ccc(OCC3COC(Cn4ccnc4)(c4ccc(Cl)cc4Cl)O3)cc2)CC1` (stereo not drawn) [KETOCONAZOLE]: in data set [1], the MNTC is 12.5 µM. In data set [2], the “Phospholipidosis as %” value came to 52%. Turning to `CC(CCc1ccccc1)NCC(O)c1ccc(O)c(C(N)=O)c1` (stereo not drawn) [LABETALOL], the MNTC in data set [1] came to 25 µM. In addition, in data set [2], the “Phospholipidosis as %” value turned out to be 5.3%. The matching figures for `CNCCCC12CCC(c3ccccc31)c1ccccc12` [MAPROTILINE]: 6.25 µM and 42.2%. `Cc1cccc(CN2CCN(C(c3ccccc3)c3ccc(Cl)cc3)CC2)c1` (stereo not drawn) [MECLIZINE]: the MNTC in data set [1] amounted to 25 µM. Also, the “Phospholipidosis as %” value in data set [2] is reported as 10.5%. For the compound `CC1=CC(=O)c2ccccc2C1=O` [MENADIONE], in data set [1], the MNTC was determined as 3.13 µM. In addition, the “Phospholipidosis as %” value in data set [2] was determined as 1%. Consider `CC1COc2c(N3CCN(C)CC3)c(F)cc3c(=O)c(C(=O)O)cn1c23` (stereo not drawn) [OFLOXACIN], for which the MNTC in data set [1] was found to be 50 µM. Moreover, the “Phospholipidosis as %” value in data set [2] stood at 0.3%. The like results for `C1CCC(C(CC2CCCCN2)C2CCCCC2)CC1` (stereo not drawn) [PERHEXILINE] were, in that order, 3.13 µM and 36%. Consider `CC(C)NCC(O)COc1cccc2ccccc12` (stereo not drawn) [PROPRANOLOL], for which the MNTC in data set [1] is 25 µM. Further, in data set [2], the “Phospholipidosis as %” value was found to be 36%. The matching figures for `C=C[C@H]1C[N@@]2CC[C@H]1C[C@@H]2[C@@H](O)c1ccnc2ccc(OC)cc12` [QUINIDINE]: 25 µM and 3.2%. The like results for `CN[C@H]1CC[C@@H](c2ccc(Cl)c(Cl)c2)c2ccccc21` [SERTRALINE] were, in that order, 3.13 µM and 100%. For `CC(C)NCC(O)c1ccc(NS(C)(=O)=O)cc1` (stereo not drawn) [SOTALOL], the MNTC in data set [1] worked out at 50 µM. Besides, in data set [2], the “Phospholipidosis as %” value is recorded as 0.3%.

Consider `CC/C(=C(\c1ccccc1)c1ccc(OCCN(C)C)cc1)c1ccccc1` [TAMOXIFEN], for which the MNTC in data set [1] was 6.25 µM. Also, in data set [2], the “Phospholipidosis as %” value was 53%. The like results for `CCN(CC)CCOc1ccc2c(c1)C(=O)c1cc(OCCN(CC)CC)ccc1-2` [TILORONE] were, in that order, 3.13 µM and 20.2%.

With `CCN(CC)CCOc1ccc(C(O)(Cc2ccc(Cl)cc2)c2ccc(C)cc2)cc1` (stereo not drawn) [TRIPARANOL], the MNTC in data set [1] was found to be 3.13 µM. In data set [2], the “Phospholipidosis as %” value worked out at 44.9%. The matching figures for `CCCC(CCC)C(=O)O` [VALPROIC ACID]: 100 µM and 0.2%.
